Data set [1] deals with CWR22R. Nature of the data set: Cytotoxicity against human 22Rv1 cells expressing PMSA measured using MTT assay. It counts as functional. In general terms: Formazan colour is commonly taken as a measure of viable cells.
The subject of data set [2] is PC-3. Nature of the data set: Cytotoxicity against human PC-3 cells not expressing PMSA measured using MTT assay. The class given is functional.
Data set [3] can be described thus: Acute toxicity in Wistar rat assessed as damage in liver at 30 mg/kg, iv. Conditions: in vivo. It counts as organism-based.
Data set [4] is described as follows: Acute toxicity in Wistar rat assessed as decrease in porphyrin release from eye mucous membrane at 30 mg/kg, iv. It counts as organism-based. Conditions: in vivo.
Data set [5] is described as follows: Acute toxicity in Wistar rat assessed as decrease in porphyrin release from nose mucous membrane at 30 mg/kg, iv. Conditions: in vivo. The class given is organism-based.
Data set [6] is described as follows: Acute toxicity in iv dosed ICR male mouse assessed as maximum non-lethal dose. The class given is organism-based. Conditions: in vivo.
Data set [7] is described as follows: Acute toxicity in Wistar rat assessed as decrease in motor activity. Conditions: in vivo.
Data set [8] concerns PC-3. Briefly: Induction of intracellular reactive oxygen species production in human PC-3 cells incubated for 1 hr measured at CC50 concentration by amperometric method. The class given is functional, cell-based.
Data set [9] can be described thus: Acute toxicity in iv dosed Wistar male rat assessed as maximum non-lethal dose. It counts as organism-based. Conditions: in vivo.
Data set [10] relates to CWR22R. Briefly: Induction of intracellular reactive oxygen species production in human 22Rv1 cells incubated for 1 hr measured at CC50 concentration by amperometric method. The class given is functional, cell-based.

Each structure is given as a SMILES string. Active and inactive are the calls of the source. The calls are words filed in the database; no cut-off is given here. Where a SMILES comes first, the peptide text is derived from it. [ ]: non-standard residue; d: D form. The star is where a group is joined. Dolaproine = CO[C@@H]([C@@H]1CCCN1)[C@@H](C)C(=O)O; Dil = CC[C@H](C)[C@H](NC)[C@@H](CC(=O)O)OC; X2 = C[C@@H](N*)[C@@H](O)c1ccccc1; NMeV = CN[C@H](C(=O)O)C(C)C

Results on two compounds are retold here after ChEMBL document CHEMBL5034037, “Synthesis, Characterization, and Preclinical Evaluation of a Small-Molecule Prostate-Specific Membrane Antigen-Targeted Monomethyl Auristatin E Conjugate” (J Med Chem, 2021).

The term CC50 denotes the concentration that lowers cell viability or growth by half. A low value points to harm at low concentration. As for `CC(=O)O[C@@]12CO[C@@H]1C[C@H](O)[C@@]1(C)C(=O)[C@H](O)C3=C(C)[C@@H](OC(=O)[C@H](O)[C@@H](NC(=O)OC(C)(C)C)c4ccccc4)C[C@@](O)([C@@H](OC(=O)c4ccccc4)[C@H]21)C3(C)C` [DOCETAXEL ANHYDROUS], the CC50 in the data set with CWR22R [1] was 3.3 nM; in the data set on PC-3 [2] it was 6.7 nM.
`CC[C@H](C)[C@@H]([C@@H](CC(=O)N1CCC[C@H]1[C@H](OC)[C@@H](C)C(=O)N[C@H](C)[C@@H](O)c1ccccc1)OC)N(C)C(=O)[C@@H](NC(=O)[C@@H](NC)C(C)C)C(C)C` (H-[NMeV]V[Dil][Dolaproine]-X2): the Activity result was “Toxic” in data set [3]; “Toxic” in data set [4]; “Toxic” in data set [5]; 0.1 mg/kg in [6]; “Toxic” in [7]; 0.29 mg/kg in [9]. Besides, the CC50 with CWR22R [1] was 1.44 nM; in the data set with PC-3 [2] it was 0.97 nM. Besides, the result in the data set with PC-3 [8] and with CWR22R [10] was Active.
